# Data: the NIST ThermoML archive (doi:10.1021/je400205g)
# Numbers after ± are expanded uncertainties.
# Conditions: Transpiration method
SMILES,"vapor or sublimation pressure (309.15 K, Liquid) [kPa]","vapor or sublimation pressure (263.15 K, Liquid) [kPa]","vapor or sublimation pressure (278.15 K, Liquid) [kPa]","vapor or sublimation pressure (293.15 K, Liquid) [kPa]","vapor or sublimation pressure (308.15 K, Liquid) [kPa]",further results
C=CC(F)(F)C(F)(F)C(F)(F)C(F)(F)C(F)(F)C(F)(F)C(F)(F)C(F)(F)F,0.978 ± 0.039,–,–,–,–,"vapor or sublimation pressure (254.15 K, Liquid): 0.01269 ± 0.00078 kPa; vapor or sublimation pressure (272.45 K, Liquid): 0.06823 ± 0.003 kPa; vapor or sublimation pressure (290.75 K, Liquid): 0.2843 ± 0.012 kPa"
O=C(O)C(F)(F)OC(F)(F)C(F)(F)OC(F)(F)F,–,0.00451 ± 0.0011,0.02238 ± 0.0014,0.09288 ± 0.0041,0.3168 ± 0.013,–
"O=C(O)C(F)(F)C(F)(F)C(F)(F)C(F)(F)C(F)(F)F [2,2,3,3,4,4,5,5,6,6,6-undecafluorohexanoic acid]",–,–,–,0.044 ± 0.0022,0.1656 ± 0.0068,"vapor or sublimation pressure (263.15 K, Crystal): 0.00126 ± 0.001 kPa; vapor or sublimation pressure (270.15 K, Crystal): 0.00294 ± 0.001 kPa; vapor or sublimation pressure (278.15 K, Crystal): 0.00791 ± 0.0011 kPa; vapor or sublimation pressure (283.15 K, Crystal): 0.0134 ± 0.0012 kPa; vapor or sublimation pressure (285.15 K, Crystal): 0.01726 ± 0.0014 kPa; vapor or sublimation pressure (290.15 K, Crystal): 0.03551 ± 0.0018 kPa; vapor or sublimation pressure (300.15 K, Liquid): 0.08434 ± 0.0037 kPa"
"OCCCC(F)(F)C(F)(F)C(F)(F)C(F)(F)F [4,4,5,5,6,6,7,7,7-nonafluoro-1-heptanol]",0.217 ± 0.0086,–,–,0.05717 ± 0.0027,–,"vapor or sublimation pressure (255.65 K, Liquid): 0.00087 ± 8e-05 kPa; vapor or sublimation pressure (273.15 K, Liquid): 0.00765 ± 0.00033 kPa; vapor or sublimation pressure (282.45 K, Liquid): 0.02121 ± 0.00096 kPa"
CCOC(=O)C(F)(F)C(F)(F)C(F)(F)C(F)(F)C(F)(F)C(F)(F)C(F)(F)F [ethyl perfluorooctanoate],–,0.00516 ± 0.0011,0.02313 ± 0.0014,0.08988 ± 0.0038,0.2649 ± 0.011,–
